Results published in patent US20230158042A1, “COMBINATION CANCER THERAPY WITH PENTAAZA MACROCYCLIC RING COMPLEX AND HORMONE THERAPY AGENT” (Galera Labs, LLC, priority 2020, published 2023).

Assays:
[1] = tested on: MCF7 cells expressing shSIRT3; assay: Clonogenic cell survival in MCF7-shSIRT3 cells with hydroxy-Tam; assay type: cell-based, human; conditions: 1 µM hydroxy-Tam for 120 h
Description: All experiments were done in triplicate. Error bars represent ± 1 SEM. **p < 0.01, and ***p < 0.001. Three-armed groups were analyzed via a one-way ANOVA statistical analysis with Tukey’s post-analysis, and two-armed groups were analyzed by a t-test.
(§1) Clonogenic cell survival assay. For the clonogenic survival analysis, exponentially growing cells were replated using appropriate dilutions, and clonogenic survival was evaluated after 14 days in regular growth medium. Cells were stained with crystal violet, and colonies of >50 cells were counted and utilized to calculate clonogenic survival^46.

[2] = tested on: T47D cells constitutively expressing MnSOD^K68Q; assay: Clonogenic cell survival in T47D-MnSOD^K68Q cells with hydroxy-Tam; assay type: cell-based, human; conditions: 1 µM hydroxy-Tam; compared to cells expressing MnSOD^K68WT or MnSOD^K68R
MCF7-MnSOD^K68Q cells = assay: Clonogenic cell survival in MCF7-MnSOD^K68Q cells; assay type: cell-based, human
Description: FIGS. 25a-25b show clonogenic cell survival studies in MCF7-MnSOD^K68Q cells exposed to either: Fulv at 100 nM (in FIG. 25a); or Palb at 0.5 µM (in FIG. 25b) using standard methods. […] Error bars are ± 1 SEM. Experiments in triplicate. *** p < 0.001.
as §1

[3] = tested on: T47D cells expressing shSIRT3; assay: Clonogenic cell survival in T47D-shSIRT3 cells with hydroxy-Tam; assay type: cell-based, human; conditions: 1 µM 4-hydroxy-Tam for 24 h
Excerpt: FIGS. 14a-14g are images and plots that illustrate that loss of SIRT3-induced MnSOD—K68 deacetylation leads to hydroxy-Tam resistance, and that such resistance is associated with increased lysine acetylation in human breast cancer cells, while mimicking deacetylation of MnSOD—K68 or pharmacologically mimicking the activity of deacetylated lysine 68 MnSOD with a manganese pentaazamacrocyclic dismutase mimetic has opposing effects. With respect to FIG. 14a, T47D-MnSOD^WT, T47D-MnSOD^K68R, and T47D-MnSOD^K68D permanent cell lines were selected for hydroxy-Tam resistance in 1 µM for 3 months, and clonogenic cell survival experiments were completed. […] With respect to FIG. 14c, T47D and T47D-HTR cells, with and without exposure to 1 µM 4-hydroxy-Tam for 24 h (HT), were measured for hydroxy-Tam response by clonogenic survival experiments. […] The cell lysates were analyzed by immunoblotting with anti-MnSOD-K122-Ac (validated as a SIRT3 deacetylation target in Tao et al., 2010, Cancer Cell), anti-MnSOD, anti-OSCP-K139-Ac (validated as a SIRT3 deacetylation target in Tao et al., 2010, Cancer Cell), anti-OSCP, anti-IDH2K413-Ac (validated as a SIRT3 deacetylation target in Someya et al., 2010, Cancer Cell), anti-IDH2, and anti-actin. […]
Clonogenic cell survival assay. […] Cells were stained with crystal violet, and colonies of >50 cells were counted and utilized to calculate clonogenic survival^46.

[4] = tested on: T47D cells overexpressing MnSOD^K68Q; assay: MTT cell viability, T47D cells overexpressing MnSOD^K68Q; assay type: cell-based, human; conditions: 48 hours
Description: (§2) In FIGS. 28a-28b, cell lysates of 250 nM, 500 nM, 1 µM cisplatin-resistant and 500pM, 1 nM and 2 nM doxorubicin-resistant MCF7 cells (cultured in drug-containing media for 3 months) were collected and immunoblotted for MnSOD—K68—Ac, MnSOD, actin and tubulin. In FIGS. 28d-28e, cell lysates of 2.5 µM, 5 µM, 10 µM cisplatin-resistant and 5 nM, 10 nM and 20 nM doxorubicin-resistant T47D cells (cultured in drug-containing media for 3 months) were collected and immunoblotted for MnSOD—K68—Ac, MnSOD, actin and tubulin. In FIGS. 28c and 28f, 10,000 MCF7 or T47D cells overexpressed with empty vector, MnSOD^WT, MnSOD^K68R or MnSOD^K68Q were plated in 96 well plate and treated with cisplatin (1 µM for MCF7 and 10 µM for T47D) or doxorubicin (2 nM for MCF7 and 20 nM for T47D) the next day. After 48 hours, MTT assay is conducted to determine the cell viability after chemotherapy drug treatment.
(§3) Cell proliferation was measured using MTT proliferation assay kit (ab211091). 10,000 exponentially growing cells were plated in regular growth medium per well into 96-well plates in triplicate. Cells were treated with specified drugs after overnight and incubated for 48 hours. […] The absorbance was read at OD=590 nm and used to evaluate cell proliferation.

[5] = tested on: MCF7 cells overexpressing MnSOD^K68Q; assay: MTT cell viability, MCF7 cells overexpressing MnSOD^K68Q; assay type: cell-based, human; conditions: 48 hours
Description: as §2, §3

LNCaP-MnSOD^K68Q cells = assay: Clonogenic cell survival in LNCaP-MnSOD^K68Q cells; assay type: cell-based; conditions: 10 µM of ENZ for 72 hr
Description: In FIG. 20a, clonogenic cell survival experiments were done in LNCaP-ENZR cells infected with lenti-MnSOD^K68R or lenti-MnSOD^K68Q, in the presence of ENZ (10 µM). In FIG. 20b, clonogenic survival assays were done in LNCaP cells infected with lenti-MnSOD^WT, lenti-MnSOD^K68R, and lenti-MnSOD^K68Q, and selected with neomycin, and placed in 10 µM of ENZ for 72 hr. Error bars ± 1 SEM. Experiments were done in triplicate. **p < 0.01.
FIGS. 21a-21b are a chart and graph showing that pharmacologically mimicking the activity of deacetylated lysine 68 MnSOD with a manganese pentaazamacrocyclic dismutase mimetic both inhibited the growth of LNCaP-ENZR tumors and reversed the enzalutamide resistance in LNCaP-ENZR / LNCaP—MnSOD^K68Q cells and tumors. In FIG. 21a, clonogenic cell survival experiments were performed in LNCaP-ENZR (left two bars) and LNCaP—MnSOD^K68Q (right two bars) treated with ENZ, with or without GC4419 (20 µM) for 5 days. […] Tumor volumes were measured three times a week for 46 days. For each group n=10. Error bars ± 1 SEM. All experiments done in triplicate. **p < 0.01.

adult mice = conditions: lethal total body irradiation of adult mice; cited from earlier work
[6] = tested on: hamster model of acute, radiation-induced oral mucositis; conditions: cited from earlier work
[7] = tested on: rat model of inflammation; conditions: cited from earlier work
colon of rats = conditions: experimental model of colitis; cited from earlier work
[8] = tested on: rat model of collagen-induced arthritis; conditions: cited from earlier work

With 4-hydroxytamoxifen [hydroxy-Tam] the “hydroxy-Tam cytotoxicity (clonogenic survival)” value [1] was “resistance to hydroxy-Tam cytotoxicity”, the “cytotoxicity of hydroxy-Tam (clonogenic survival)” value [2] was “significant resistance to the cytotoxicity of hydroxy-Tam” and the “cytotoxicity of hydroxy-Tam (clonogenic survival)” value (MCF7-MnSOD^K68Q cells; 1 µM hydroxy-Tam for 5 days, compared to cells expressing MnSOD^K68WT or MnSOD^K68R) was “significant resistance to the cytotoxicity of hydroxy-Tam”. The “hydroxy-Tam cytotoxicity (clonogenic survival)” value [3] was “resistance to hydroxy-Tam cytotoxicity”.
With `[NH2][Pt]([NH2])([Cl])[Cl]` [CDDP, cisplatin] the “cell viability after drug treatment (MTT)” value (“cell viability” below) ([4]; CDDP 10 µM) was “higher resistance” and the “cell viability” value ([5]; CDDP 1 µM) was “higher resistance”.
In the case of `COc1cccc2c1C(=O)c1c(O)c3c(c(O)c1C2=O)C[C@@](O)(C(=O)CO)C[C@@H]3O[C@H]1C[C@H](N)[C@H](O)[C@H](C)O1` [DXR, doxorubicin], the “cell viability” value ([4]; DXR 20 nM) was “higher resistance” and the “cell viability” value ([5]; DXR 2 nM) was “higher resistance”.
For `CNC(=O)c1ccc(N2C(=S)N(c3ccc(C#N)c(C(F)(F)F)c3)C(=O)C2(C)C)cc1F` [ENZ, enzalutamide, reference compound], the “response to ENZ (clonogenic survival)” value (LNCaP-MnSOD^K68Q cells) was “ENZR phenotype”.
For `C[C@]12CC[C@@H]3c4ccc(O)cc4C[C@@H](CCCCCCCCC[S+]([O-])CCCC(F)(F)C(F)(F)F)[C@H]3[C@@H]1CC[C@@H]2O` (stereo partly drawn) [Fulv, fulvestrant], the “clonogenic tumor cell survival” value (MCF7-MnSOD^K68Q cells; Fulv at 100 nM, compared to MCF7 cells expressing MnSOD^WT) was “exhibited resistance”.
In the case of `[Cl-].[Cl-].[Mn+2].c1cc2nc(c1)CN[C@@H]1CCCC[C@H]1NCCN[C@@H]1CCCC[C@H]1NC2` [GC4403], the radiation damage (adult mice) is given as “attenuate the radiation damage”, the radiation damage [6] is given as “attenuate the radiation damage” and the inflammation [7] is given as “inhibit inflammation”. The “injury to the colon” value (colon of rats) was “very significantly reduce the injury to the colon” and the joint disease [8] was “prevent joint disease”.
